According to patent US20170008888A1 (KYORIN PHARMACEUTICAL CO., LTD., priority 2014, published 2017):
Where two headings read alike, the source gives them in different places.

Legend:
[1] = target: T1, recombinant human ERK5 catalytic domain (Homo sapiens, UniProt Q13164); test: Recombinant human ERK5 radiometric (HotSpot) assay; assay type: biochemical
T1 construct: Recombinant human ERK5 catalytic domain radiometric assays; purchased Reaction Biology, Corp (Malvern, Pa.), which ran the assay as a service
T1 sequence (Q13164 55-347 limits assumed): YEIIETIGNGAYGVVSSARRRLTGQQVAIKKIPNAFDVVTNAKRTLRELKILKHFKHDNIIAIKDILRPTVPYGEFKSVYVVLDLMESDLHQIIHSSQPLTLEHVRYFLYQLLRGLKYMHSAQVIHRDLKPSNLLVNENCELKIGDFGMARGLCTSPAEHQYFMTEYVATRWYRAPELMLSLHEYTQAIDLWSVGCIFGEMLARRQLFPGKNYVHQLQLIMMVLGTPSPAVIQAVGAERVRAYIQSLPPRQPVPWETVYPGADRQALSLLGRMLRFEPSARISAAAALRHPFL
Experimental: In this example, potency of the compounds in recombinant human ERK5 was assayed.
Recombinant human ERK5 catalytic domain radiometric assays were performed by Reaction Biology, Corp (Malvern, Pa.). The HotSpot radiometric assay is based on conventional filter-binding assays (Nature Biotechnology (2011) 29: 1039-1045). Compounds were tested at 20 μM down by ⅓ in a 10 point serial dilution series. Briefly, [γ-33P]-ATP was used as the tracer along with 10 μM cold ATP to label ERK5 in the presence of 20 μM myelin basic protein substrate.

human PBMCs = test: Human PBMC TNF-α response to endotoxin (ELISA); assay type: cell-based; conditions: 0.1 μg/ml LPS 16 h, read-out: EC50 for the inhibition of the human PBMC TNF-α response to endotoxin, ave. ± S.D.
In short: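 PBMCs at 2e6 cells/ml in RPMI 1640 with 10% charcoal-dextran-treated FBS were pre-treated 1 h at 37 °C with compound (4-point 1:5 dilution from 10 μM). Stimulation with 0.1 μg/ml E. coli 0111:B4 LPS for 16 h; TNF-α measured by ELISA (A450) in 25-fold diluted supernatant.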

AurA = target: T2, AurA (Homo sapiens, UniProt O14965); test: Probe-based (AX9989) kinase profiling in Jurkat lysate: AurA; assay type: binding; conditions: screening concentration 1 μM; read-out: AurA Inhibition % at indicated screening concentration
T2 construct: screened for activity against several kinases in Jurkat cells; endogenous in cells; host or cells: Jurkat cell lysate
T2 sequence (O14965 1-403): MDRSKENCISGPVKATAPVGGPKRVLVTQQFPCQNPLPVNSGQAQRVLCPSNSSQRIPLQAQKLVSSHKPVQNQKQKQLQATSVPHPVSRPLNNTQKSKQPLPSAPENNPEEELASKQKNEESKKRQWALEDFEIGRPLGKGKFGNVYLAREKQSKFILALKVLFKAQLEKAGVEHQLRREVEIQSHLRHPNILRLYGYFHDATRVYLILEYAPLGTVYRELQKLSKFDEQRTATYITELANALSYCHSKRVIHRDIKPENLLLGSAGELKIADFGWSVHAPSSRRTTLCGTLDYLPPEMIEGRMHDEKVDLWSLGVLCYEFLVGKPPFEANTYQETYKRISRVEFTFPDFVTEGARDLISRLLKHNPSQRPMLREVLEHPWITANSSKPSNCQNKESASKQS
In short: (§1)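 Gel-filtered Jurkat lysate (HEPES pH 7.5, 20 mM MnCl2, 5 mg/ml) was pre-incubated 15 min with compound at room temperature, then labelled with 5 μM acyl-phosphate ATP probe AX9989. Tryptic probe-labelled active-site peptides were streptavidin-captured and quantified by LC/MS. Percent inhibition reflected the decrease in labelled-peptide intensity versus no compound.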

AMPKa1 or AMPKa2 = test: Probe-based (AX9989) kinase profiling in Jurkat lysate: AMPKa1 or AMPKa2; assay type: binding; conditions: screening concentration 1 μM
In short: as §1

JAK1 = target: T3, JAK1 (Homo sapiens, UniProt P23458); test: Probe-based (AX9989) kinase profiling in Jurkat lysate: JAK1; assay type: binding; conditions: screening concentration 1 μM; read-out: JAK1 Inhibition % at indicated screening concentration
T3 construct: screened for activity against several kinases in Jurkat cells; endogenous in cells; host or cells: Jurkat cell lysate
T3 sequence (P23458 whole entry): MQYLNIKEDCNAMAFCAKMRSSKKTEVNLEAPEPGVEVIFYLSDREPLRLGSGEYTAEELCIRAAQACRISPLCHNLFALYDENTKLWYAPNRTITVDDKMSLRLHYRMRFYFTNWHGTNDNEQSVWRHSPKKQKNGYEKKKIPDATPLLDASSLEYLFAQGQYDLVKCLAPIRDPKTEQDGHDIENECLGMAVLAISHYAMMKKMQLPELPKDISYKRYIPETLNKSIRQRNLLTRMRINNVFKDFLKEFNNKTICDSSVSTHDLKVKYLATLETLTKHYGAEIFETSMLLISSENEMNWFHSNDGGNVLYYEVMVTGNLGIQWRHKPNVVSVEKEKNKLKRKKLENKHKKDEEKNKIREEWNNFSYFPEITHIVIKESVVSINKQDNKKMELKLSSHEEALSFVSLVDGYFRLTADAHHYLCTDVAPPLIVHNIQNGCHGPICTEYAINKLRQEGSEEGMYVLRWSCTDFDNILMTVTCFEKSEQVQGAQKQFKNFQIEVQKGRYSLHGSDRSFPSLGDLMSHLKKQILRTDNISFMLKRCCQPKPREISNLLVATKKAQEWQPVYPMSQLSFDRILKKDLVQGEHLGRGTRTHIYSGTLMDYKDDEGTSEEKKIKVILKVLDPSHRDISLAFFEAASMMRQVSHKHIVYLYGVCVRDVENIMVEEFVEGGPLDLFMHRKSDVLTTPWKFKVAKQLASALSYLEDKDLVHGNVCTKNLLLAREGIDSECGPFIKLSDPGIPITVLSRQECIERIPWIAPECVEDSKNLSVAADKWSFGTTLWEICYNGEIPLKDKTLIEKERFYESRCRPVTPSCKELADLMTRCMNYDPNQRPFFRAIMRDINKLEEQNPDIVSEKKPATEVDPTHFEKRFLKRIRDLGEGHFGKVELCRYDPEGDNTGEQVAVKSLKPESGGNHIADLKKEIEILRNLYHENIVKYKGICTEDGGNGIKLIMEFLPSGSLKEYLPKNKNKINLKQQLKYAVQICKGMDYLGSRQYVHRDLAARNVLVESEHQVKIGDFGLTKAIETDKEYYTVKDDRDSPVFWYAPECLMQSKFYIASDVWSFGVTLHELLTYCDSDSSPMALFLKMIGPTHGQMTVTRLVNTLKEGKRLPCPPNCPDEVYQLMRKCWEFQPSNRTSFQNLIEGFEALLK
In short: as §1

AurB or AurC = test: Probe-based (AX9989) kinase profiling in Jurkat lysate: AurB or AurC; assay type: binding; conditions: screening concentration 1 μM
In short: as §1

[2] = target: T4, BRD4 bromodomain domain I [BRD4(1)] (Homo sapiens, UniProt O60885); test: BRD4 bromodomain domain 1 inhibition assay (TR-FRET); assay type: binding; conditions: screening concentration 10 μM
T4 construct: BRD4 bromodomain domain I [BRD4(1)]; purchased Cayman Chemicals
In short: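 0.5% DMSO, in triplicate, using Cayman BRD4(1) TR-FRET protocol with slight modification. 670/620 nm ratio normalized to 10 μM JQ1, with DMSO control set as 0% inhibition.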

ERK5 = target: T5, ERK5 (Homo sapiens, UniProt Q13164); test: Probe-based (AX9989 acyl phosphate ATP probe) kinase profiling in Jurkat lysate: ERK5; assay type: binding
T5 construct: screened for activity against several kinases in Jurkat cells; endogenous in cells; host or cells: Jurkat cell lysate
T5 sequence (Q13164 whole entry): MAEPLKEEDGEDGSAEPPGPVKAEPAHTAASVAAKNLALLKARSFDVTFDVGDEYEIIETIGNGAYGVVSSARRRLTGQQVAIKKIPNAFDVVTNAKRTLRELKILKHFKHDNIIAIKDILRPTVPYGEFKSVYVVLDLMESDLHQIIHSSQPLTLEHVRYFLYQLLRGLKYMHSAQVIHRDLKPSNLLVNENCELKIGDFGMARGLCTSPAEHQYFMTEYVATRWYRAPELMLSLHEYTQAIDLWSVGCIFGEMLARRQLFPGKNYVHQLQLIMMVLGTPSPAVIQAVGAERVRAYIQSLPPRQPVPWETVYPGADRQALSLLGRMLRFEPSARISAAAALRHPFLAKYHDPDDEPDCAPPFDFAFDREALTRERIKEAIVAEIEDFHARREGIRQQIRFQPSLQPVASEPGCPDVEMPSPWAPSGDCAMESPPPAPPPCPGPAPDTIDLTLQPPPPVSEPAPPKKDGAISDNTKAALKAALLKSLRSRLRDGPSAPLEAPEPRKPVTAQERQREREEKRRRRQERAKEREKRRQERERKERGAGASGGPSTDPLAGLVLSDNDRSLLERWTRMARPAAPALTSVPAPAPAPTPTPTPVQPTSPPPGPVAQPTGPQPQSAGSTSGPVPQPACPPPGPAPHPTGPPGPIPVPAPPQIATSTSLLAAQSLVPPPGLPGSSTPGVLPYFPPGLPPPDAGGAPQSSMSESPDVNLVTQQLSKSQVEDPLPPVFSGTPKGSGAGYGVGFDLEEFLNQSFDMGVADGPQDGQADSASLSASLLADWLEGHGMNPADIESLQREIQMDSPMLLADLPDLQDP
In short: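 Gel-filtered Jurkat lysate (5 mg/ml, 20 mM MnCl2) preincubated 15 min at room temperature with compound, then labelled with 5 μM AX9989 acyl phosphate ATP probe. Probe-labelled ERK5 active-site peptides quantified by LC/MS after trypsin digestion and streptavidin capture; IC50 calculated from percent inhibition at the screening concentration.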

ACK = target: T6, ACK (Homo sapiens, UniProt Q07912); test: Probe-based (AX9989) kinase profiling in Jurkat lysate: ACK; assay type: binding; conditions: screening concentration 1 μM; read-out: ACK Inhibition % at indicated screening concentration
T6 construct: screened for activity against several kinases in Jurkat cells; endogenous in cells; host or cells: Jurkat cell lysate
T6 sequence (Q07912 whole entry): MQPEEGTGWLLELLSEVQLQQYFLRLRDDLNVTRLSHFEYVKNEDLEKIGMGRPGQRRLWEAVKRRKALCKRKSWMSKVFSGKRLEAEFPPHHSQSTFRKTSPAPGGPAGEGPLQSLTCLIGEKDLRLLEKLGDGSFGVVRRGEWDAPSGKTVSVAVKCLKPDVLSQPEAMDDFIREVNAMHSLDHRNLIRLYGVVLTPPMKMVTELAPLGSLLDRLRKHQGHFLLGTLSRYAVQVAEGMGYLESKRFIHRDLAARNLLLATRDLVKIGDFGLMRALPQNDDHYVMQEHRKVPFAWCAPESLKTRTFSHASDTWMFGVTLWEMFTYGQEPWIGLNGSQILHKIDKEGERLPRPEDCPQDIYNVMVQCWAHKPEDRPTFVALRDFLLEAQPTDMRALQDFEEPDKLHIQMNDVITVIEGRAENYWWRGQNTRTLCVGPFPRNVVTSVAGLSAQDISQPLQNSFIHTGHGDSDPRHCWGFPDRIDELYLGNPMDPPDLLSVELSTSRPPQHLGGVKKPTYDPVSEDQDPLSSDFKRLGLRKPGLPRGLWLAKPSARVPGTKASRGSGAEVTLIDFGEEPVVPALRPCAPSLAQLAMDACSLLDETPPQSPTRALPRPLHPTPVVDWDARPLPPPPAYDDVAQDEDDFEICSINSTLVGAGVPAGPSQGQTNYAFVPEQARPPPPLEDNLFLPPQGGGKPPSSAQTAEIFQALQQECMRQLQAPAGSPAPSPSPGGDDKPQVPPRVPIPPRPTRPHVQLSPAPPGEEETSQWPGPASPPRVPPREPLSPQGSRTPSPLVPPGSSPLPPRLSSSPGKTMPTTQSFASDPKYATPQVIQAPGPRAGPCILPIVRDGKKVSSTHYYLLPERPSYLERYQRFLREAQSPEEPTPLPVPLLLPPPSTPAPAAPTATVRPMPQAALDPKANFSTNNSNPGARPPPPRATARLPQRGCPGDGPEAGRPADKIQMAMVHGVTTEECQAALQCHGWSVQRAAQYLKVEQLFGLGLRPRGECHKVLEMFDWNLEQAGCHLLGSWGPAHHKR
In short: as §1

ABL or ARG = test: Probe-based (AX9989) kinase profiling in Jurkat lysate: ABL or ARG; assay type: binding; conditions: screening concentration 1 μM
In short: as §1

TAO2 = target: T7, TAO2 (Homo sapiens, UniProt Q9UL54); test: Probe-based (AX9989) kinase profiling in Jurkat lysate: TAO2; assay type: binding; conditions: screening concentration 1 μM; read-out: TAO2 Inhibition % at indicated screening concentration
T7 construct: screened for activity against several kinases in Jurkat cells; endogenous in cells; host or cells: Jurkat cell lysate
T7 sequence (Q9UL54 1-1235): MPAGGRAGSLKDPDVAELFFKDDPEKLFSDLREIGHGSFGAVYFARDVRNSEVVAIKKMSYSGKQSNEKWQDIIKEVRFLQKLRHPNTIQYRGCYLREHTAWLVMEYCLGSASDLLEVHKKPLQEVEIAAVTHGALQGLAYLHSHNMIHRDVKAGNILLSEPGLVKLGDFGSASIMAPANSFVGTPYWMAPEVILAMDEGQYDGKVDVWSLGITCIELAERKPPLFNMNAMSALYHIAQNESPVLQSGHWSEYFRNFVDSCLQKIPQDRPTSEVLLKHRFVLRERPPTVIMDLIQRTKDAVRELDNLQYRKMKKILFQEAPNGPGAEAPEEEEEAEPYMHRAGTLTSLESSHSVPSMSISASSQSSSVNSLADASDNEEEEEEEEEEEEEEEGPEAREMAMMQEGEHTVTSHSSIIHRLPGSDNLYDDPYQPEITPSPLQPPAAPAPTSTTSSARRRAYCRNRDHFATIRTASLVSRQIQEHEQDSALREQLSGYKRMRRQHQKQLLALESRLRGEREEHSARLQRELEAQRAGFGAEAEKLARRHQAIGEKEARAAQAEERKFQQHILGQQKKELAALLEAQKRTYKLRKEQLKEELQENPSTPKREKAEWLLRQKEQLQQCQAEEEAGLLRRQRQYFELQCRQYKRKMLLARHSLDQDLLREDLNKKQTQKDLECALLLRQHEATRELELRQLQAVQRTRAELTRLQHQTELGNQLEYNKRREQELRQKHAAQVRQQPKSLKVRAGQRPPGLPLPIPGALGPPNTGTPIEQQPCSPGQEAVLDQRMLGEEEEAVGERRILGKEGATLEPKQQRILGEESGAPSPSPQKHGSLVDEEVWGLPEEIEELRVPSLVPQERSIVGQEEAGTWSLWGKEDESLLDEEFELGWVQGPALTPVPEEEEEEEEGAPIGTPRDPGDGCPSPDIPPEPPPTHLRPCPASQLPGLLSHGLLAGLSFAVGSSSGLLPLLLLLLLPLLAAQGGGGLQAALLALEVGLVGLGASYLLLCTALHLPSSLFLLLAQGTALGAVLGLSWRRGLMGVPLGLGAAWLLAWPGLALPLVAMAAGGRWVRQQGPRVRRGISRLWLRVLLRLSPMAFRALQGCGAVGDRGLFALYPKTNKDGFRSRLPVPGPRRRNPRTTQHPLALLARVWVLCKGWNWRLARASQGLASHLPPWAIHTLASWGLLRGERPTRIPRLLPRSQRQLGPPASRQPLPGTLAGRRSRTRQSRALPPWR
In short: as §1

[3] = 10 μM ATP, 20 μM myelin basic protein substrate, read-out: rhERK5 IC50

Compound | IC50 [1, 3] [nM] | EC50 (human PBMCs) [nM] | other results
CCOc1cc(C(=O)N2CCC(N3CCOCC3)CC2)ccc1Nc1cc2c(cn1)N(C)C(=O)c1ccccc1N2C [Compound T12] | 20 to 50 | 680 | 
CCOc1cc(C(=O)N2CCC[C@H](O)C2)ccc1Nc1cc2c(cn1)N(C)C(=O)c1scnc1N2C [Compound T13] | 50 to 200 | 950 | 
CCOc1cc(C(=O)N2CCN(CCOC)CC2)ccc1Nc1cc2c(cn1)N(C)C(=O)c1ccccc1N2C [Compound T16] | 20 to 50 | 920 | 
CCOc1cc(C(=O)N2CCN(CCC#N)CC2)ccc1Nc1cc2c(cn1)N(C)C(=O)c1ccccc1N2C [Compound T17] | 20 to 50 | 900 | 
CCOc1cc(C(=O)N2CC[C@@H](N3CCOCC3)C2)ccc1Nc1cc2c(cn1)N(C)C(=O)c1ccccc1N2C [Compound T19] | 50 to 200 | 690 | 
CCOc1cc(C(=O)N2CC[C@@H](C#N)C2)ccc1Nc1cc2c(cn1)N(C)C(=O)c1ccccc1N2C [Compound T21] | < 20 | 1280 | 
CCOc1cc(C(=O)N2CCC[C@@H](C#N)C2)ccc1Nc1cc2c(cn1)N(C)C(=O)c1ccccc1N2C [Compound T23] | > 200 | 2390 | 
CCOc1cc(C(=O)N2CCC[C@H](C#N)C2)ccc1Nc1cc2c(cn1)N(C)C(=O)c1ccccc1N2C [Compound T24] | > 200 | 3270 | 
CCOc1cc(C(=O)N2CCC(=O)CC2)ccc1Nc1cc2c(cn1)N(C)C(=O)c1ccccc1N2C [Compound T28] |  | 480 | IC50 [1]: < 20 nM
CCOc1cc(C(=O)N2CCN(C(=O)CN)CC2)ccc1Nc1cc2c(cn1)N(C)C(=O)c1ccccc1N2C [Compound T30] | < 20 | 770 | 
CN1C(=O)c2ccccc2N(C)c2cc(Nc3ccc(C(=O)N4CCC[C@H](O)C4)cc3OCCF)ncc21 [Compound T32] | 50 to 200 | 870 | 
CN1C(=O)c2ccccc2N(C)c2cc(Nc3ccc(C(=O)N4CCCNCC4)cc3OCCF)ncc21 [Compound T33] | < 20 | 670 | 
CCOc1cc(C(=O)N2CCN(c3ccccn3)CC2)ccc1Nc1cc2c(cn1)N(C)C(=O)c1ccccc1N2C [Compound T35] | 20 to 50 | 660 | 
CCOc1cc(C(=O)N2CCN(c3cccnc3)CC2)ccc1Nc1cc2c(cn1)N(C)C(=O)c1ccccc1N2C [Compound T36] | < 20 | 110 | 
CCOc1cc(C(=O)N2CCC(N(C)CCO)CC2)ccc1Nc1cc2c(cn1)N(C)C(=O)c1ccccc1N2C [Compound T38] | 20 to 50 | 320 | 
CCCOc1cc(C(=O)N2CCC[C@H](O)C2)ccc1Nc1cc2c(cn1)N(C)C(=O)c1ccccc1N2C [Compound T39] | > 200 | 920 | 
CCCOc1cc(C(=O)N2CCCNCC2)ccc1Nc1cc2c(cn1)N(C)C(=O)c1ccccc1N2C [Compound T40] | 20 to 50 | 490 | 
CCCOc1cc(C(=O)N2CCC(N3CCN(C)CC3)CC2)ccc1Nc1cc2c(cn1)N(C)C(=O)c1ccccc1N2C [Compound T41] | 20 to 50 | 370 | 
CCOc1cc(C(=O)N2CCC[C@H](OP(=O)(O)O)C2)ccc1Nc1cc2c(cn1)N(C)C(=O)c1ccccc1N2C [Compound T43] | 20 to 50 | > 10000 | 
CCOc1cc(C(=O)N2CCC[C@H](OC(=O)CN(C)C)C2)ccc1Nc1cc2c(cn1)N(C)C(=O)c1ccccc1N2C [Compound T44] | 20 to 50 | 650 | 
CCOc1cc(C(=O)N2CCC(N3CCCNCC3)CC2)ccc1Nc1cc2c(cn1)N(C)C(=O)c1ccccc1N2C [Compound T45] | < 20 | 1480 | 
CCOc1cc(C(=O)N2CCNC(C)CC2)ccc1Nc1cc2c(cn1)N(C)C(=O)c1ccccc1N2C (stereo not drawn) [Compound T46] | < 20 | 600 | 
CCOc1cc(C(=O)N2CCC(N3CCN[C@H](C)C3)CC2)ccc1Nc1cc2c(cn1)N(C)C(=O)c1ccccc1N2C [Compound T51] | 20 to 50 | 740 | 
CCOc1cc(C(=O)N2CCC(N3CCN[C@@H](C)C3)CC2)ccc1Nc1cc2c(cn1)N(C)C(=O)c1ccccc1N2C [Compound T52] | 20 to 50 | 1080 | 
CCOc1cc(C(=O)N2CCC[C@H](N3CCCC3)C2)ccc1Nc1cc2c(cn1)N(C)C(=O)c1ccccc1N2C [Compound T53] | 50 to 200 | 890 | 
CCOc1cc(C(=O)N2CCOCC2)ccc1Nc1cc2c(cn1)N(C)C(=O)c1ccccc1O2 [Compound T81, 3-((2-ethoxy-4-(morpholine-4-carbonyl)phenyl)amino)-11-methylbenzo[f]pyrido[4,3-b][1,4]oxazepin-10(11H)-one] |  |  | inhibition at 1 µM (AurA): ≤ 35%; AMPKa1 or AMPKa2 Inhibition % at indicated screening concentration (AMPKa1 or AMPKa2): E (E is ≦35%); inhibition at 1 µM (JAK1): ≤ 35%; AurB or AurC Inhibition % at indicated screening concentration (AurB or AurC): E (E is ≦35%); inhibition at 10 µM [2]: < 70%; IC50 (ERK5; calculated from percent inhibition and screening concentration, Jurkat lysate, AX9989 probe): 101 to 500 nM; inhibition at 1 µM (ERK5; screening concentration 1 μM, read-out: ERK5 Inhibition % at indicated screening concentration): 75 to 90%; inhibition at 1 µM (ACK): ≤ 35%; ABL or ARG Inhibition % at indicated screening concentration (ABL or ARG): E (E is ≦35%); inhibition at 1 µM (TAO2): ≤ 35%
